US11465989B2, “Guanidine compounds and use thereof” (IMMUNOMET THERAPEUTICS INC., priority 2014, dated 2022)
Structures can show the parent of a compound that is named as a salt.

How the values were obtained:
U937 cell = test: In vitro combination study with GDC0941 on U937 cell; type: cell-based
Method: (§1) A549, H1975 (CRL5908, ATCC) or U937 cell (CRL1593.2™, ATCC) lines were cultured in RPMI 1640 media (Lifetechnologies, CA) with supplement of 10% FBS and antibiotic-antimycotic (Lifetechnologies, CA). Dasatinib (Combi-Blocks, San Diego, Calif.) is Bcr-Abl-tyrosine kinase inhibitor and Src family tyrosine kinase inhibitor approved for CML treatment. GDC094 (Selleckchem, Houston, Tex.) is a pan-PI3K inhibitor and effective in various cancer cells. H1975 or A549 cells were dissociated from culture plate using 0.5% trypsin-EDTA (Lifetechnologies, CA) and were suspended. U937 cells were spun down using centrifugation. […]
(§2) Among four concentrations of the compounds of present invention, the highest concentration was set to IC80 and the lowest concentration was approximately IC30. […] 100 μl of DMSO was added after removing MTT solution from each well, and were read by VICTOR X3 Multilabel Counter at the wavelength of 550 nm.
(§3) For the analysis of U937 cell viability, 20 μl of Celltiter96® AQueous one solution (MTS, Promega, Madison, Wis.) were added to each well, and plates were incubated at 37° C. and 5% CO2. After 2 hours later, plates read by VICTOR X3 Multilabel Counter at the wavelength of 490 nm. The combination index (CI value) was calculated using Calcusyn (Biosoft, UK).

SK-MEL-28 cells = test: Cytotoxicity in low glucose condition (MTT); type: cell-based; conditions: Homo sapiens, SK-MEL-28, 0.75 mM glucose, 72 hours, read-out: SK-MEL-28 0.75 mM glucose Cell viability (IC50 ia)
A549 cells = test: In vitro combination study with Dasatinib on A549 cell; type: cell-based; conditions: in combination with 0.05 μM of Dasatinib, 72-hour treatment
Method: as §1, §2, §3

SK-MEL-239 tumor cells = test: In vivo xenograft model using SK-MEL-239 cell; parameters: species or system mice
Method: The compounds of the present invention were evaluated in vivo using xenograft human cancer model in mice. The compounds of invention were administrated orally or interperitoneal injection. Tumor cell lines were cultured in vitro as monolayer culture. Using female BALB/c nude mice with immune system compromised, each mouse was inoculated subcutaneously at the right flank with tumor cells for tumor development. The treatment was started when the tumor size reaches approximately 100 mm^3
The SK-MEL-239 tumor cell line was maintained in vitro as monolayer in RPMII 640 medium supplemented with 10% heat inactivated fetal bovine serum, 100 U/ml penicillin and 100 μg/ml streptomycin, and L-glutamine (2 mM) at 37° C. in an atmosphere of 5% CO2 in air. The tumor cells were routinely subcultured twice weekly with 0.5% trypsin-EDTA treatment. The cells growing in an exponential growth phase were harvested and counted for tumor cell inoculation.
Female BALB/c nude mice aged 6-8 weeks and weighing approximately 18-22 g were purchased from Vital River. Each mouse was inoculated subcutaneously at the right flank with SK-MEL-239 tumor cells (1×10^7) in 0.1 ml of PBS for tumor development. The treatment was started, when the tumor size reaches approximately 100 mm^3. 100 mg/kg of Phenformin and 15 mg/kg of Vemurafenib were administered via oral gavage twice daily and 100 mg/kg HLPOI (HL176001001) was administered once daily for 21 days. Tumor volumes were measured twice a week in two dimensions using a caliper, and the volume was expressed in mm^3 using the formula: V=0.5×a×b^2, where a and b were the long and short diameters of the tumor, respectively. The T/C value (in percentage) was an indication of antitumor effect. T and C were the mean volumes of the treated and control groups, respectively.

A549 cell = test: In vitro combination study with GDC0941 on A549 cell; type: cell-based
Method: as §1, §2, §3

H1975 cell = test: In vitro combination study with Dasatinib on H1975 cell; type: cell-based; conditions: 0.2 μM of Dasatinib, 8 μM or 40 μM of Example 1, 40 μM or 200 μM of Example 104
Method: as §1, §2, §3

[1] = Dosing 100 mg/kg, once daily, Day 28

N=C(N)NC(=N)NCCc1ccc(Cl)c(Cl)c1 [Example 1, N-1-(3,4-dichloro)phenethylbiguanide hydrochloride]
CI value (combination index) (U937 cell): lower than 1 | IC50 (SK-MEL-28 cells): 5 to 10 µM | CI value (combination index) (A549 cells): 0.289 | tumor volume compared to the control group (SK-MEL-239 tumor cells; 100 mg/kg, Phenformin twice daily, Example 1 once daily): significant reduction of tumor volume | T/C (Day 28, %) (SK-MEL-239 tumor cells; [1]): 65.4% | Tumor Volume (Day 28, mm^3, a) (SK-MEL-239 tumor cells; [1]): 1,869 ± 82 mm^3 | tumor volume compared to the single administration of Vemurafenib (SK-MEL-239 tumor cells; in combination with 15 mg/kg of Vemurafenib): reduced the tumor volume | CI value (combination index) (A549 cell): lower than 1 | combination therapy effect with Dasatinib (H1975 cell): low combination therapy effect
